Results from the NIST ThermoML archive (doi:10.1016/j.tca.2011.02.027).
Numbers after ± are expanded uncertainties.

How the values were obtained:
[1] = Crystal; DTA
[2] = molar heat capacity at constant pressure; conditions: 101.33 kPa, Liquid, Large sample (1 g) DSC
[3] = molar heat capacity at constant pressure; xn = mol fraction of the nth substance listed; conditions: 101.3 kPa, Liquid, Large sample (1 g) DSC

CCCCn1cc[n+](C)c1C.F[P-](F)(F)(F)(F)F [1-butyl-2,3-dimethylimidazolium hexafluorophosphate]
Conditions | Normal melting temperature [°C]
[1] | 38.00 ± 3

[2]
Conditions | molar heat capacity at constant pressure [J/K/mol]
323.2 K | 439.3 ± 19
328.2 K | 442.9 ± 19
333.2 K | 446.2 ± 19
338.2 K | 449.4 ± 19
343.2 K | 452.7 ± 19
348.2 K | 457 ± 19
353.2 K | 460.1 ± 20
358.2 K | 464.4 ± 20
363.2 K | 468 ± 20
368.2 K | 471.6 ± 20
373.2 K | 475.1 ± 20
378.2 K | 478.9 ± 20
383.2 K | 482.6 ± 20

CCCCn1cc[n+](C)c1C.F[P-](F)(F)(F)(F)F [1-butyl-2,3-dimethylimidazolium hexafluorophosphate] + O
molar heat capacity at constant pressure [J/K/mol], [3]
Conditions | x1 = 0.8 | x1 = 0.85 | x1 = 0.9 | x1 = 0.95 | x1 = 1
303.2 K | 387 ± 16 | 396.4 ± 17 | 407.2 ± 17 | 418.3 ± 18 | –
308.2 K | 389.2 ± 16 | 398.4 ± 17 | 409.4 ± 17 | 420.5 ± 18 | –
313.2 K | 391.2 ± 17 | 400.5 ± 17 | 411.9 ± 18 | 423.3 ± 18 | –
318.2 K | 393.4 ± 17 | 402.7 ± 17 | 414.5 ± 18 | 426 ± 18 | –
323.2 K | 395.9 ± 17 | 405.5 ± 17 | 417.7 ± 18 | 429.4 ± 18 | 439.3 ± 19
328.2 K | 398.9 ± 17 | 408.8 ± 17 | 421.3 ± 18 | 433.2 ± 18 | 442.9 ± 19
333.2 K | 401.8 ± 17 | 411.9 ± 18 | 424.7 ± 18 | 436.7 ± 18 | 446.2 ± 19
338.2 K | 404.5 ± 17 | 414.9 ± 18 | 428 ± 18 | 440.1 ± 19 | 449.4 ± 19
343.2 K | 407.5 ± 17 | 417.9 ± 18 | 431.2 ± 18 | 443.5 ± 19 | 452.7 ± 19
348.2 K | 411.1 ± 17 | 421.7 ± 18 | 435.2 ± 18 | 447.6 ± 19 | 457 ± 19
353.2 K | 414.1 ± 18 | 424.8 ± 18 | 438.3 ± 19 | 450.9 ± 19 | 460.1 ± 20
358.2 K | – | – | – | – | 464.4 ± 20
363.2 K | – | – | – | – | 468 ± 20
368.2 K | – | – | – | – | 471.6 ± 20
373.2 K | – | – | – | – | 475.1 ± 20
378.2 K | – | – | – | – | 478.9 ± 20
383.2 K | – | – | – | – | 482.6 ± 20

CCCCn1cc[n+](C)c1C.F[B-](F)(F)F [1-butyl-2,3-dimethylimidazolium tetrafluoroborate]
Conditions | Normal melting temperature [°C]
[1] | 32.00 ± 1

[2]
Conditions | molar heat capacity at constant pressure [J/K/mol]
313.2 K | 397.3 ± 17
318.2 K | 398.8 ± 17
323.2 K | 400.6 ± 17
328.2 K | 403.3 ± 17
333.2 K | 405.4 ± 17
338.2 K | 407.8 ± 17
343.2 K | 410.6 ± 17
348.2 K | 413.5 ± 18
353.2 K | 416.5 ± 18
358.2 K | 420.2 ± 18
363.2 K | 423.6 ± 18
368.2 K | 427.3 ± 18
373.2 K | 430.6 ± 18
378.2 K | 434.4 ± 18
383.2 K | 436.3 ± 18

CCCCn1cc[n+](C)c1C.F[B-](F)(F)F [1-butyl-2,3-dimethylimidazolium tetrafluoroborate] + O
molar heat capacity at constant pressure [J/K/mol], [3]
Conditions | x1 = 0.2 | x1 = 0.4 | x1 = 0.6 | x1 = 0.8 | x1 = 1
303.2 K | 146.9 ± 6.2 | 217.5 ± 9.2 | 284.4 ± 12 | 343 ± 15 | –
308.2 K | 147.2 ± 6.2 | 218.2 ± 9.3 | 285.6 ± 12 | 344.2 ± 15 | –
313.2 K | 147.8 ± 6.3 | 219.3 ± 9.3 | 287 ± 12 | 346.3 ± 15 | 397.3 ± 17
318.2 K | 148.4 ± 6.3 | 220.4 ± 9.4 | 288.6 ± 12 | 348.5 ± 15 | 398.8 ± 17
323.2 K | 149.1 ± 6.3 | 221.7 ± 9.4 | 290.3 ± 12 | 351 ± 15 | 400.6 ± 17
328.2 K | 149.8 ± 6.4 | 223.2 ± 9.5 | 292.1 ± 12 | 353.2 ± 15 | 403.3 ± 17
333.2 K | 150.4 ± 6.4 | 224.1 ± 9.5 | 293.5 ± 12 | 355.6 ± 15 | 405.4 ± 17
338.2 K | 151.1 ± 6.4 | 225.2 ± 9.6 | 295.7 ± 12 | 358.1 ± 15 | 407.8 ± 17
343.2 K | 151.7 ± 6.4 | 226.4 ± 9.6 | 297.6 ± 13 | 360.8 ± 15 | 410.6 ± 17
348.2 K | 152.4 ± 6.5 | 227.7 ± 9.7 | 299.5 ± 13 | 363.5 ± 15 | 413.5 ± 18
353.2 K | 153.1 ± 6.5 | 229.2 ± 9.7 | 301.7 ± 13 | 366.3 ± 16 | 416.5 ± 18
358.2 K | – | – | – | – | 420.2 ± 18
363.2 K | – | – | – | – | 423.6 ± 18
368.2 K | – | – | – | – | 427.3 ± 18
373.2 K | – | – | – | – | 430.6 ± 18
378.2 K | – | – | – | – | 434.4 ± 18
383.2 K | – | – | – | – | 436.3 ± 18

CCCCn1cc[n+](C)c1.[Br-] [1-butyl-3-methylimidazolium bromide]
Conditions | Normal melting temperature [°C]
[1] | 73.00 ± 2

[2]
Conditions | molar heat capacity at constant pressure [J/K/mol]
353.2 K | 334.8 ± 14
358.2 K | 338.1 ± 14
363.2 K | 341.1 ± 14
368.2 K | 344.6 ± 15
373.2 K | 347.5 ± 15
378.2 K | 350.6 ± 15
383.2 K | 354.1 ± 15
388.2 K | 356.7 ± 15
393.2 K | 359.9 ± 15
398.2 K | 363.4 ± 15
403.2 K | 366.4 ± 16

CCCCn1cc[n+](C)c1.[Cl-] [1-butyl-3-methylimidazolium chloride]
Conditions | Normal melting temperature [°C]
[1] | 57.00 ± 1

[2]
Conditions | molar heat capacity at constant pressure [J/K/mol]
343.2 K | 337.2 ± 14
348.2 K | 340.3 ± 14
353.2 K | 343.3 ± 15
358.2 K | 347.1 ± 15
363.2 K | 350.6 ± 15
368.2 K | 354.3 ± 15
373.2 K | 357.6 ± 15
378.2 K | 361 ± 15
383.2 K | 364.3 ± 16
388.2 K | 367.4 ± 16
393.2 K | 370.7 ± 16
398.2 K | 374 ± 16
403.2 K | 376.8 ± 16

CCCCn1cc[n+](C)c1.[Cl-] [1-butyl-3-methylimidazolium chloride] + O
molar heat capacity at constant pressure [J/K/mol], [3]
Conditions | x1 = 0.2 | x1 = 0.4 | x1 = 0.6 | x1 = 0.8 | x1 = 1
303.2 K | 125.6 ± 5.3 | 170.2 ± 7.2 | 218.6 ± 9.3 | 272.6 ± 12 | –
308.2 K | 126.7 ± 5.4 | 171.6 ± 7.3 | 220 ± 9.3 | 274.4 ± 12 | –
313.2 K | 127.7 ± 5.4 | 173 ± 7.3 | 221.8 ± 9.4 | 276.3 ± 12 | –
318.2 K | 128.6 ± 5.5 | 174.5 ± 7.4 | 223.9 ± 9.5 | 279.3 ± 12 | –
323.2 K | 129.9 ± 5.5 | 176.2 ± 7.5 | 225.9 ± 9.6 | 280.9 ± 12 | –
328.2 K | 130.9 ± 5.6 | 177.6 ± 7.5 | 228 ± 9.7 | 282.9 ± 12 | –
333.2 K | 131.8 ± 5.6 | 179 ± 7.6 | 230 ± 9.8 | 285.5 ± 12 | –
338.2 K | 133.1 ± 5.6 | 180.5 ± 7.7 | 232 ± 9.8 | 288.2 ± 12 | –
343.2 K | 133.8 ± 5.7 | 182.2 ± 7.7 | 234.1 ± 9.9 | 290.5 ± 12 | 337.2 ± 14
348.2 K | 135.2 ± 5.7 | 183.6 ± 7.8 | 236.4 ± 10 | 293.1 ± 12 | 340.3 ± 14
353.2 K | 136 ± 5.8 | 185.9 ± 7.9 | 238.6 ± 10 | 296.3 ± 13 | 343.3 ± 15
358.2 K | – | – | – | – | 347.1 ± 15
363.2 K | – | – | – | – | 350.6 ± 15
368.2 K | – | – | – | – | 354.3 ± 15
373.2 K | – | – | – | – | 357.6 ± 15
378.2 K | – | – | – | – | 361 ± 15
383.2 K | – | – | – | – | 364.3 ± 16
388.2 K | – | – | – | – | 367.4 ± 16
393.2 K | – | – | – | – | 370.7 ± 16
398.2 K | – | – | – | – | 374 ± 16
403.2 K | – | – | – | – | 376.8 ± 16
